In patent publication US5391744A (priority 1993, dated 1995):
Entries after “also recorded” stand apart in the source; their conditions may differ. Where two headings read alike, the source gives them in different places.

Key:
[1] = molecular target: T1, dopamine transporter (high-affinity uptake of [^3 H]dopamine into striatal nerve endings) (Rattus norvegicus, UniProt P23977); test: inhibition of high-affinity uptake of [^3 H]dopamine into striatal nerve endings (synaptosomes); format: biochemical
T1 construct: striatal nerve endings (synaptosomes); from tissue; host or cells: striatal nerve endings (synaptosomes)
T1 sequence (P23977 whole entry): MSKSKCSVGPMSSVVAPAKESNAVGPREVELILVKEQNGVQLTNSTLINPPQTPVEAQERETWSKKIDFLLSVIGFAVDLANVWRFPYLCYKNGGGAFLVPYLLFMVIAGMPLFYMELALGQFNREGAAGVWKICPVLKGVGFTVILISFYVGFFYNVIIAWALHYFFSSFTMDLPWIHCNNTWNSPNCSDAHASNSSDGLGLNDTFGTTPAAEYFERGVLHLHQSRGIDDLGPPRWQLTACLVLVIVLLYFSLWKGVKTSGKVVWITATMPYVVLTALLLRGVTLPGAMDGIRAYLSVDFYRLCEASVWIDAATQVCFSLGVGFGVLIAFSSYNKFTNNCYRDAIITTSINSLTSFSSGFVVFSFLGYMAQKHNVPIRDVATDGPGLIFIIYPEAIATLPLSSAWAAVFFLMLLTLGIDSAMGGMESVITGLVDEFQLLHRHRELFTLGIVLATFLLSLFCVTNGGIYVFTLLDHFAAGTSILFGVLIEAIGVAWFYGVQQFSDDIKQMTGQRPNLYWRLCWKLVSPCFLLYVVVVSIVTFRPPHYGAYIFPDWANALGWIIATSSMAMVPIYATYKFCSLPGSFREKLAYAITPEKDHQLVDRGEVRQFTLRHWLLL

[2] = tested on: rats trained to discriminate cocaine; test: animal or person; conditions: Rattus norvegicus, ip, read-out: ED50 (50% cocaine-appropriate responding)
[3] = tested on: rats trained to discriminate cocaine
rats = test: casual observation of animals treated with 2c; conditions: 0.8 mg/kg 2c; 24 hours following administration
dopamine transporter = dopamine transporter (Rattus norvegicus, UniProt P23977); test: displacement of [^3 H]mazindol binding from rat striatal membranes
Chain of dopamine transporter (P23977 whole entry): as above

[4] = 0.05 mg/kg, 30 min, mean ± S.E.M.
[5] = 0.05 mg/kg, 120 min, mean ± S.E.M.
[6] = 0.05 mg/kg, 240 min, mean ± S.E.M.
[7] = 0.1 mg/kg, 30 min, mean ± S.E.M.
[8] = 0.1 mg/kg, 120 min, mean ± S.E.M.
[9] = 0.1 mg/kg, 240 min, mean ± S.E.M.
[10] = 0.2 mg/kg, 30 min, mean ± S.E.M.
[11] = 0.2 mg/kg, 240 min, mean ± S.E.M.
[12] = 0.4 mg/kg, 30 min, mean ± S.E.M.
[13] = 0.4 mg/kg, 120 min, mean ± S.E.M.
[14] = 0.4 mg/kg, 240 min, mean ± S.E.M.
[15] = 0.8 mg/kg, 30 min, mean ± S.E.M.

## C=C[C@H]1[C@@H](c2ccc(Cl)cc2)C[C@@H]2CC[C@H]1N2C [Compound 2c, 3β-(4-Chlorophenyl)-2β-vinyltropane]
[1]
  IC50: 3.2 ± 0.6 nM
[2]; 0.5 h
  ED50: 0.11 mg/kg
[2]; 2 h
  ED50: 0.08 mg/kg
[2]; 4 h
  ED50: 0.09 mg/kg
[3]; 0.05 mg/kg, 30 min
  n/N (animals completing 20 responses / tested): 7/7
[3]; [4]
  % Drug responses: 19 ± 4%
  Rate (responses/min): 29.6 ± 9 responses/min
[3]; 0.05 mg/kg, 120 min
  n/N (animals completing 20 responses / tested): 7/7
[3]; [5]
  % Drug responses: 22 ± 14%
  Rate (responses/min): 18.4 ± 6 responses/min
[3]; 0.05 mg/kg, 240 min
  n/N (animals completing 20 responses / tested): 7/7
[3]; [6]
  % Drug responses: 14 ± 14%
  Rate (responses/min): 28.3 ± 5 responses/min
[3]; 0.1 mg/kg, 30 min
  n/N (animals completing 20 responses / tested): 7/7
[3]; [7]
  % Drug responses: 40 ± 17%
  Rate (responses/min): 37.1 ± 6 responses/min
[3]; 0.1 mg/kg, 120 min
  n/N (animals completing 20 responses / tested): 7/7
[3]; [8]
  % Drug responses: 75 ± 16%
  Rate (responses/min): 25.7 ± 5 responses/min
[3]; 0.1 mg/kg, 240 min
  n/N (animals completing 20 responses / tested): 7/7
[3]; [9]
  % Drug responses: 61 ± 17%
  Rate (responses/min): 23.5 ± 4 responses/min
[3]; 0.2 mg/kg, 30 min
  n/N (animals completing 20 responses / tested): 7/7
[3]; [10]
  % Drug responses: 83 ± 10%
  Rate (responses/min): 26.2 ± 6 responses/min
[3]; 0.2 mg/kg, 120 min
  n/N (animals completing 20 responses / tested): 7/7
[3]; 0.2 mg/kg, 120 min, mean
  % Drug responses: 100%
[3]; 0.2 mg/kg, 120 min, mean ± S.E.M.
  Rate (responses/min): 46.8 ± 9 responses/min
[3]; 0.2 mg/kg, 240 min
  n/N (animals completing 20 responses / tested): 7/7
[3]; [11]
  % Drug responses: 98 ± 1%
  Rate (responses/min): 47.9 ± 10 responses/min
[3]; 0.4 mg/kg, 30 min
  n/N (animals completing 20 responses / tested): 7/7
[3]; [12]
  % Drug responses: 99 ± 1%
  Rate (responses/min): 52.8 ± 9 responses/min
[3]; 0.4 mg/kg, 120 min, * intense stereotypic response, failed to complete session
  n/N (animals completing 20 responses / tested): 3/5
[3]; [13]
  % Drug responses: 72 ± 28%
  Rate (responses/min): 24.9 ± 18 responses/min
[3]; 0.4 mg/kg, 240 min, * intense stereotypic response, failed to complete session
  n/N (animals completing 20 responses / tested): 4/5
[3]; [14]
  % Drug responses: 91 ± 9%
  Rate (responses/min): 23.6 ± 18 responses/min
[3]; 0.8 mg/kg, 30 min
  n/N (animals completing 20 responses / tested): 7/7
[3]; [15]
  % Drug responses: 93 ± 5%
  Rate (responses/min): 33.5 ± 9 responses/min
[3]; 0.8 mg/kg, 120 min
  % Drug responses: 95%
  Rate (responses/min): 7.7 responses/min
[3]; 0.8 mg/kg, 120 min, * intense stereotypic response, failed to complete session
  n/N (animals completing 20 responses / tested): 1/7
[3]; 0.8 mg/kg, 240 min
  % Drug responses: 100%
[3]; 0.8 mg/kg, 240 min, * intense stereotypic response, failed to complete session
  n/N (animals completing 20 responses / tested): 3/7
[3]; 0.8 mg/kg, 240 min, mean ± S.E.M.
  Rate (responses/min): 39.1 ± 1 responses/min
[3]; 0.2 and 0.4 mg/kg, 30 min injection period
  complete cocaine-like responding: induced complete cocaine-line responding in all animals
[3]; in words, across test doses
  response rates: stable across the different test doses of 2c, with the exception of the highest dose (0.8 mg/kg) of 2c which reduced response rates
[3]; in words, dose-dependence over the tested doses
  substitution for the cocaine cue / drug-appropriate responding: dose-dependent substitution for the cocaine cue
[3]; in words, injection interval 30-240 min
  duration of action: long duration of action
rats
  hyperactivity: still hyperactive 24 hours following administration
Dopamine transporter
  IC50: 1.2 ± 0.3 nM
Dopamine transporter; relative to ester counterpart 1d
  potency compared with 1d: slightly more potent than the "Win" type compound 1d; also recorded: slightly more potent than its ester counterpart 1d
